These results are taken from patent US11542288B2, “Antiviral compounds” (priority 2020, dated 2023).

A word on the EC50: it is the concentration needed to bring the measured effect to its halfway point. In general, Ki refers to the dissociation constant of the complex between target and ligand, obtained from inhibition or displacement.

The subject of assay [1] is SP cells (chronically infected with HTLV-1). In words: SP cell Gag processing (HTLV-1 maturation) immunoblot. The class given is cell-based. The conditions noted are these: for amount of full-length (FL) Gag and larger size cleavage intermediates (CI): SP cell lysates and supernatants, 50 μM or 100 μM; for FL Gag band percentage (mean±SEM): 48 h. The procedure: SP Cell Culture and Protease Inhibition Treatments. SP cells were cultured in RPMI (Invitrogen, Carlsbad, Calif., USA) containing 20% HyClone (FC3) from Thermo Scientific (Waltham, Mass.) and 1% penicillin-streptomycin from Life Technologies (Grand Island, N.Y., USA) and supplemented with human IL-2 (Roche Diagnostics, Indianapolis, Ind., USA) at a concentration of 10 U/mL. Cells were grown to a density of […], and the media was exchanged into media containing the drug treatment at the two concentrations tested (50 μM and 100 μM). DMSO was used as a treatment control at the max concentration (0.01% v/v) as used for the sample with the highest inhibitor concentrations. Cells were treated for 48 h in an incubator at 37° C. with 5% CO2. To harvest the samples, the cell culture supernatant and cells were separated with a 5 min spin at 1000 g. The cell culture supernatant was filtered through a 0.22 μm syringe filter and ultracentrifuged over an 8% Optiprep cushion (Millipore Sigma, USA) (109,000 g for 1.5 hat 4° C.) in a 50.1 Ti rotor (Beckman Coulter, USA). The resulting viral pellet was resuspended in 200 μL of RIPA buffer (150 mM NaCl, 1% (v/v) Nonidet P-40, 0.5% sodium deoxycholate, 0.1% SDS, 25 mM Tris pH 7.4) supplemented with a cOmplete, Mini, EDTA-free cellular Protease Inhibitor Cocktail (Roche Diagnostics, Indianapolis, Ind., USA). The SP cell pellet was washed once with phosphate buffered saline (PBS) and resuspended in a final volume of 200 μL of a RIPA buffer cOmplete, Mini, EDTA-free cellular Protease Inhibitor Cocktail (Roche Diagnostics, Indianapolis, Ind., USA). Immunoblot samples were then prepared and detected as described in the previous method section. Gel band quantification analysis was performed using Fiji. A one-tailed t test for two independent means (95% confidence) was used to determine if the FL Gag band from the various drug treatments in the immunoblot analysis was statistically different from the DMSO controls.
To further validate inhibition of HTLV-1 protease, SP cells (which are chronically infected with HTLV-1) were treated with the same inhibitors (FIG. 20). The SP cell line harbors low numbers of HTLV-1 proviruses and produces virus particles that incorporate full-length Gag, which makes SP an ideal cell culture system for testing the inhibition of HTLV-1 maturation. Gag cleavage products were detected by using a CA (p24) primary antibody in both SP cell lysates and virus particles released in the cell culture supernatants. […] For the Ex.7 treatment of the viral particles produced from the SP cells, the FL Gag band percentage was 5.8±2.8% and 12.9±3.1% (mean±SEM) for 50 μM and 100 μM treatments, respectively (FIGS. 21, 23).
In general terms: Immunoblotting shows a protein as a band on a membrane.

The target of assay [2] is T1, HTLV-1 protease (Human T-cell leukemia virus type I, UniProt Q82134, L40I). The assay is classed as biochemical. On the set-up: This protease construct has 9 amino acids removed from the C-terminus to facilitate crystallization; made in house; host or cells: Escherichia coli. The conditions noted are these: 1:1 ratio inhibitor to protease (1 μM), 60 min, 37° C.
The next assay has as its system wild-type HIV-1. In words: HIV antiviral assay (293T / TZM-BL luciferase). The conditions noted are these: read-out: Antiviral WT EC50. The class given is cell-based.
For assay [3], the target named is T1, HTLV-1 protease. In words: biochemical.
For a further assay, the target named is T2, HIV-1 protease I84V (Human immunodeficiency virus type 1 group M subtype B, UniProt P12497, I572V/Q495K).
T2 construct: onto NL4-3 wild-type protease on a pET11a plasmid; made in house
The assay can be described thus: HIV enzyme inhibition assay (Ki), I84V variant. The class given is biochemical. The conditions noted are these: drug-resistant protease variant I84V.

A further assay deals with HIV-1 protease KY24 (Human immunodeficiency virus type 1, UniProt P12497). The conditions noted are these: read-out: Ki KY24; drug-resistant protease variant KY24.
Another assay has as its target T3, HIV-1 protease I50V/A71V (Human immunodeficiency virus type 1 group M subtype B, UniProt P12497, A559V/I538V/Q495K).
T3 construct: onto NL4-3 wild-type protease on a pET11a plasmid; made in house
In words: HIV enzyme inhibition assay (Ki), I50V/A71V variant. The class given is biochemical. As to conditions: drug-resistant protease variant I50V/A71V.

The next assay addresses T4, HIV-1 protease 10 Mutant (Human immunodeficiency virus type 1 group M subtype B, UniProt P12497).
T4 construct: onto NL4-3 wild-type protease on a pET11a plasmid with codon optimization for protein expression in Escherichia coli; A Q7K mutation was included to prevent autoproteolysis
In words: HIV enzyme inhibition assay (Ki), 10 Mutant variant. The conditions noted are these: drug-resistant protease variant 10 Mutant. The assay is classed as biochemical.

The target in another assay is T5, HIV-1 protease 8 Mutant (Human immunodeficiency virus type 1 group M subtype B, UniProt P12497).
T5 construct: onto NL4-3 wild-type protease on a pET11a plasmid with codon optimization for protein expression in Escherichia coli; A Q7K mutation was included to prevent autoproteolysis
In words: HIV enzyme inhibition assay (Ki), 8 Mutant variant. The assay is classed as biochemical. The conditions noted are these: drug-resistant protease variant 8 Mutant.

For the next assay, the target named is T6, HIV-1 protease 11 Mutant (Human immunodeficiency virus type 1 group M subtype B, UniProt P12497).
T6 construct: onto NL4-3 wild-type protease on a pET11a plasmid with codon optimization for protein expression in Escherichia coli; A Q7K mutation was included to prevent autoproteolysis
The assay can be described thus: HIV enzyme inhibition assay (Ki), 11 Mutant variant. The assay is classed as biochemical. As to conditions: drug-resistant protease variant 11 Mutant.

The target of assay [4] is T1, HTLV-1 protease. The conditions noted are these: HTLV-1 protease.

For the molecule `CC(C)CN(C[C@@H](O)[C@H](Cc1ccccc1)NC(=O)O[C@H]1CO[C@H]2OCC[C@H]21)S(=O)(=O)c1ccc(N)cc1` [DRV, darunavir, reference compound], the “amount of full-length (FL) Gag and larger size cleavage intermediates (CI)” value in assay [1] is given as “increased”. Besides, the “inhibition of Gag cleavage and VLP maturation” value at HTLV-1 protease [2] is “effectively inhibited Gag cleavage and VLP maturation”. Also, the EC50 with wild-type HIV-1 was determined as 4.75 nM.

Take `CCOP(=O)(COc1ccc(C[C@H](NC(=O)O[C@H]2CO[C@H]3OCC[C@H]32)[C@H](O)CN(CC(CC)CC)S(=O)(=O)c2ccc(N)cc2)cc1)OCC` [Example 7, (3R,3aS,6aR)-hexahydrofuro[2,3-b]furan-3-yl ((2S,3R)-4-((4-amino-N-(2-ethylbutyl)phenyl)sulfonamido)-1-(4-((diethoxyphosphoryl)methoxy)phenyl)-3-hydroxybutan-2-yl)carbamate]: the Ki is 30 ± 10 nM at HTLV-1 protease [3]; less than 0.005 nM on HIV-1 protease I84V; 1.08 ± 0.06 nM at HIV-1 protease KY24; less than 0.005 nM at HIV-1 protease I50V/A71V; 51.6 ± 5.5 nM on HIV-1 protease 10 Mutant; 4.71 ± 0.73 nM on HIV-1 protease 8 Mutant. Also, at HIV-1 protease 11 Mutant, the Ki was 106 ± 7 nM. The “FL Gag band percentage (mean±SEM)” value in assay [1] (SP cell lysate, 50 μM) was found to be 32.4±15.5%; in assay [1] (SP cell lysate, 100 μM), 41.0±13.7%; in assay [1] (viral particles produced from SP cells, 50 μM), 5.8±2.8%; in [1] (viral particles produced from SP cells, 100 μM), 12.9±3.1%. Also, the “amount of full-length (FL) Gag and larger size cleavage intermediates (CI)” value in [1] is “increased”. For the same molecule, at HTLV-1 protease [2], the “inhibition of Gag cleavage and VLP maturation” value was “effectively inhibited Gag cleavage and VLP maturation”. Moreover, the EC50 with wild-type HIV-1 amounted to 16 nM. For the same molecule, the “fold improvement of Ki compared to DRV” value on HTLV-1 protease [4] (relative to DRV) was determined as 26 fold. Further, on HTLV-1 protease [4] (relative to UM6), the “fold better inhibition than UM6” value was 4 fold.
